Experimental data as given in PubChem BioAssay AID330 (DTP/NCI, 2004).
Values joined by “and” are separate entries in the source; they are usually repeats but may differ in a detail not shown here. Equal entries are not always repeated. Toxic doses and inconclusive results are not listed. The calls were made as follows: active = survival T/C of 150% or more; inactive = T/C below 125% in these data.

Test system: P388 leukemia ip, CD2F1 mice, survival T/C
Assay: NCI In Vivo Anticancer Drug Screen. Data for tumor model P388 Leukemia (intraperitoneal) in CD2F1 (CDF1) mice
Settings: endpoint: median survival time, higher = longer survival
Procedure, shortened: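 Mice carrying the transplanted tumor received test compound or vehicle. Survival was recorded in each group, and the value is the treated-group measurement divided by that of the vehicle-treated control group.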

[1] = dose: 100.0 mg/kg/injection, schedule: Q04DX003 (ip), vehicle: Klucel (hydroxypropylcellulose) (HPC)
[2] = dose: 200.0 mg/kg/injection, schedule: Q04DX003 (ip), vehicle: Klucel (hydroxypropylcellulose) (HPC)
[3] = dose: 400.0 mg/kg/injection, schedule: Q04DX003 (ip), vehicle: Klucel (hydroxypropylcellulose) (HPC)
[4] = dose: 60.0 mg/kg/injection, schedule: Q01DX005 (ip), vehicle: saline with Tween-80
[5] = dose: 120.0 mg/kg/injection, schedule: Q01DX005 (ip), vehicle: saline with Tween-80
[6] = dose: 240.0 mg/kg/injection, schedule: Q01DX005 (ip), vehicle: saline with Tween-80
[7] = dose: 100.0 mg/kg/injection, schedule: Q01DX005 (ip), vehicle: saline with Tween-80
[8] = dose: 200.0 mg/kg/injection, schedule: Q01DX005 (ip), vehicle: saline with Tween-80
[9] = dose: 12.5 mg/kg/injection, schedule: Q01DX009 (ip), vehicle: saline
[10] = dose: 25.0 mg/kg/injection, schedule: Q01DX009 (ip), vehicle: saline
[11] = dose: 50.0 mg/kg/injection, schedule: Q01DX009 (ip), vehicle: saline
[12] = dose: 100.0 mg/kg/injection, schedule: Q01DX009 (ip), vehicle: saline
[13] = dose: 50.0 mg/kg/injection, schedule: Q01DX005 (ip), vehicle: saline with Tween-80

Measured: T/C

Cc1cc(Cl)cc(S(=O)(=O)O)c1N
inactive: [1] 95 % of control | [2] 97 % of control | [3] 97 % of control

CCC(/C=C/c1ccccc1)=N\NC(=O)c1ccc(Cl)cc1
inactive: [4] 101 % of control | [5] 96 % of control | [6] 105 % of control

COc1ccc(NS(=O)(=O)c2ccc(NCc3c4ccccc4nc4cc(Cl)ccc34)cc2)nn1
inactive: [4] 98 % of control | [5] 94 % of control | [6] 94 % of control

COC(C)C(O)(C(=O)OCC1=CC[N+]2([O-])CCC(O)C12)C(C)(C)O (stereo not drawn)
inactive: dose: 100.0 mg/kg/injection, schedule: Q01DX005 (ip), vehicle: other 111 % of control | [7] 104 % of control | dose: 200.0 mg/kg/injection, schedule: Q01DX005 (ip), vehicle: other 102 % of control | [8] 112 % of control | dose: 400.0 mg/kg/injection, schedule: Q01DX005 (ip), vehicle: saline with Tween-80 107 % of control | dose: 800.0 mg/kg/injection, schedule: Q01DX005 (ip), vehicle: other 111 % of control | dose: 800.0 mg/kg/injection, schedule: Q01DX005 (ip), vehicle: saline with Tween-80 117 % of control | dose: 1600.0 mg/kg/injection, schedule: Q01DX005 (ip), vehicle: saline with Tween-80 112 % of control

NC(=O)CCSC(N)=S
inactive: dose: 50.0 mg/kg/injection, schedule: Q01DX005 (ip), vehicle: Klucel (hydroxypropylcellulose) (HPC) 100 % of control | dose: 100.0 mg/kg/injection, schedule: Q01DX005 (ip), vehicle: Klucel (hydroxypropylcellulose) (HPC) 109 % of control | dose: 200.0 mg/kg/injection, schedule: Q01DX005 (ip), vehicle: Klucel (hydroxypropylcellulose) (HPC) 100 % of control

CCN1C2=NCCN2C(=O)c2ccccc21
inactive: dose: 50.0 mg/kg/injection, schedule: Q01DX009 (ip), vehicle: Klucel (hydroxypropylcellulose) (HPC) 97 % of control | dose: 100.0 mg/kg/injection, schedule: Q01DX009 (ip), vehicle: Klucel (hydroxypropylcellulose) (HPC) 97 % of control

CN1C(C)(C)CC(O)(C#N)CC1(C)C
inactive: dose: 50.0 mg/kg/injection, schedule: Q01DX005 (ip), vehicle: saline 100 % of control | dose: 100.0 mg/kg/injection, schedule: Q01DX005 (ip), vehicle: saline 98 % of control | dose: 200.0 mg/kg/injection, schedule: Q01DX005 (ip), vehicle: saline 103 % of control

O=C(/C=C/C(=O)Nc1ccc(F)cc1F)Nc1ccc(F)cc1F
inactive: [4] 94 % of control and 95 % of control | [5] 98 % of control | [6] 104 % of control and 97 % of control

O=C(O)C[n+]1ccccc1
inactive: dose: 6.25 mg/kg/injection, schedule: Q01DX009 (ip), vehicle: saline 103 % of control | [9] 101 % of control and 94 % of control | [10] 105 % of control | [11] 101 % of control | [12] 97 % of control

CSC(=S)N/N=C(\C)c1nccnc1C
inactive: [13] 101 % of control | [7] 106 % of control | [8] 111 % of control

Nc1nc(N)c2cc(N3CCCC3c3ccc(Cl)cc3)ccc2n1 (stereo not drawn)
inactive: dose: 1.56 mg/kg/injection, schedule: Q01DX005 (ip), vehicle: Klucel (hydroxypropylcellulose) (HPC) 98 % of control | dose: 1.56 mg/kg/injection, schedule: Q01DX009 (ip), vehicle: Klucel (hydroxypropylcellulose) (HPC) 100 % of control and 101 % of control | dose: 3.12 mg/kg/injection, schedule: Q01DX005 (ip), vehicle: Klucel (hydroxypropylcellulose) (HPC) 98 % of control | dose: 3.12 mg/kg/injection, schedule: Q01DX009 (ip), vehicle: Klucel (hydroxypropylcellulose) (HPC) 101 % of control and 118 % of control | dose: 6.25 mg/kg/injection, schedule: Q01DX005 (ip), vehicle: Klucel (hydroxypropylcellulose) (HPC) 96 % of control | dose: 12.5 mg/kg/injection, schedule: Q01DX005 (ip), vehicle: Klucel (hydroxypropylcellulose) (HPC) 108 % of control

CCOc1ccc(NC(=O)C(C(C)N2CCCCC2)N2CCCCC2)cc1 (stereo not drawn)
inactive: [9] 93 % of control | [10] 87 % of control

CC(C)(C)N1COCO[C@H]2CCC[C@@H]21
inactive: dose: 25.0 mg/kg/injection, schedule: Q04DX002 (ip), vehicle: Klucel (hydroxypropylcellulose) (HPC) 100 % of control | dose: 50.0 mg/kg/injection, schedule: Q04DX002 (ip), vehicle: Klucel (hydroxypropylcellulose) (HPC) 102 % of control | dose: 100.0 mg/kg/injection, schedule: Q04DX002 (ip), vehicle: Klucel (hydroxypropylcellulose) (HPC) 114 % of control | dose: 200.0 mg/kg/injection, schedule: Q04DX002 (ip), vehicle: Klucel (hydroxypropylcellulose) (HPC) 100 % of control and 123 % of control

OCC1OC(n2cnc3c(Br)ncnc32)C(O)C1O (stereo not drawn)
inactive: [13] 91 % of control | [7] 98 % of control | [8] 91 % of control

O=C(O)C1C[n+]2ccccc2O1 (stereo not drawn)
inactive: [9] 100 % of control | dose: 12.5 mg/kg/injection, schedule: Q04DX003 (ip), vehicle: saline 91 % of control | [10] 100 % of control | dose: 25.0 mg/kg/injection, schedule: Q04DX003 (ip), vehicle: saline 100 % of control | [11] 109 % of control | dose: 50.0 mg/kg/injection, schedule: Q04DX003 (ip), vehicle: saline 95 % of control

Clc1ccc(C(c2ccccc2)N2CCNCC2)cc1 (stereo not drawn)
inactive: dose: 25.0 mg/kg/injection, schedule: Q04DX003 (ip), vehicle: saline with Tween-80 99 % of control | dose: 50.0 mg/kg/injection, schedule: Q04DX003 (ip), vehicle: saline with Tween-80 113 % of control | dose: 100.0 mg/kg/injection, schedule: Q04DX003 (ip), vehicle: saline with Tween-80 102 % of control

Nn1cnnc1SCc1ccccc1
inactive: dose: 100.0 mg/kg/injection, schedule: Q01DX001 (ip), vehicle: other 100 % of control | dose: 200.0 mg/kg/injection, schedule: Q01DX001 (ip), vehicle: other 100 % of control | dose: 400.0 mg/kg/injection, schedule: Q01DX001 (ip), vehicle: other 100 % of control

NNC(=O)c1cccc(C(=O)NN)c1
inactive: dose: 50.0 mg/kg/injection, schedule: Q01DX009 (ip), vehicle: saline with Tween-80 94 % of control | dose: 100.0 mg/kg/injection, schedule: Q01DX009 (ip), vehicle: saline with Tween-80 97 % of control | dose: 200.0 mg/kg/injection, schedule: Q01DX009 (ip), vehicle: saline with Tween-80 92 % of control

CCC1OC(=O)CC(O)C(C)C(OC2OC(C)C(O)C(N(C)C)C2O)C(CC=O)CC(C)C(=O)/C=C/C2(C)OC2C1C (stereo not drawn)
inactive: dose: 9.38 mg/kg/injection, schedule: Q01DX009 (ip), vehicle: Klucel (hydroxypropylcellulose) (HPC) 110 % of control | dose: 9.4 mg/kg/injection, schedule: Q01DX009 (ip), vehicle: Klucel (hydroxypropylcellulose) (HPC) 95 % of control | dose: 18.75 mg/kg/injection, schedule: Q01DX009 (ip), vehicle: Klucel (hydroxypropylcellulose) (HPC) 101 % of control and 119 % of control | dose: 37.5 mg/kg/injection, schedule: Q01DX009 (ip), vehicle: Klucel (hydroxypropylcellulose) (HPC) 103 % of control | dose: 75.0 mg/kg/injection, schedule: Q01DX009 (ip), vehicle: Klucel (hydroxypropylcellulose) (HPC) 101 % of control and 123 % of control | dose: 150.0 mg/kg/injection, schedule: Q01DX009 (ip), vehicle: Klucel (hydroxypropylcellulose) (HPC) 124 % of control

COc1cc(OC)c(C(=O)/C=C/c2ccncc2)cc1C(=O)O
inactive: dose: 50.0 mg/kg/injection, schedule: Q01DX009 (ip), vehicle: suspension in saline 114 % of control and 119 % of control | dose: 100.0 mg/kg/injection, schedule: Q01DX009 (ip), vehicle: suspension in saline 123 % of control and 124 % of control

O=C(O)c1cc(O)c(O)c(O)c1
inactive: dose: 14.0 mg/kg/injection, schedule: Q01DX009 (ip), vehicle: saline 105 % of control | dose: 22.0 mg/kg/injection, schedule: Q01DX009 (ip), vehicle: saline 100 % of control | dose: 35.0 mg/kg/injection, schedule: Q01DX009 (ip), vehicle: saline 95 % of control | [11] 103 % of control and 97 % of control | [12] 100 % of control and 101 % of control | dose: 100.0 mg/kg/injection, schedule: Q01DX009 (ip), vehicle: water 95 % of control | [1] 100 % of control | dose: 200.0 mg/kg/injection, schedule: Q01DX009 (ip), vehicle: saline 118 % of control and 96 % of control | dose: 200.0 mg/kg/injection, schedule: Q01DX009 (ip), vehicle: water 95 % of control | [2] 100 % of control | dose: 400.0 mg/kg/injection, schedule: Q01DX009 (ip), vehicle: saline 106 % of control and 111 % of control | dose: 400.0 mg/kg/injection, schedule: Q01DX009 (ip), vehicle: water 100 % of control | [3] 95 % of control | dose: 600.0 mg/kg/injection, schedule: Q01DX009 (ip), vehicle: saline 110 % of control and 111 % of control
